Patent US20230414506A1, “PEPTIDE FORMULATIONS AND METHODS OF USE” (REALTA LIFE SCIENCES, INC., priority 2020, published 2023)
Ends that are not written are not given here. dPEG24 = C-terminal PEG24

Experiments:
[1] = Aqueous solubility of the peptides; format: physicochemical
[2] = Gelling of citrate buffer formulation; format: physicochemical; conditions: 80 mg/ml, pH 6.8
Method: For the citrate buffer conditions, PA-dPEG24 and PA-I8Sar were formulated at a concentration of 80 mg/ml at pH 6.8. […] This gelling behavior was not observed for PA-I8Sar.

[3] = test system: complement activity (human O sera and AB red blood cells); experiment: ABO incompatibility CH50-type hemolytic assay of peptides formulated with different excipients; format: biochemical; conditions: for Inhibition of complement activation in the hemolytic assay: formulated in citrate, ascorbate and methionine, compared to histidine formulation
Method: To ascertain if these various excipients had any effect on the functional activity of PA-dPEG24 and PA-I8Sar, the formulated peptides were tested in a hemolytic assay to determine the ability of these molecules to inhibit complement activity. For hemolytic complement assays, human red blood cells (RBCs) from type AB donors were purified, washed and standardized to 1×10^9 cells/ml, as previously described. Human sera from type O donors at a 20% final concentration was combined with increasing concentrations of the formulated peptides and the volume was brought up to 0.15 ml with GVBS++ buffer and […] RBCs. The samples were spun at 3,000 rpm for 5 minutes and the supernatant was collected and read at 412 nm. Values are represented as a percent of the positive control, which consists of human O sera and AB red blood cells in GVBS++ buffer without peptide addition.

[4] = format: physicochemical; conditions: 20% Intralipid, 4° C. for 48 hours
[5] = cited from earlier work

Substance	Solubility studies, character of the peptide [1]	Gelling behavior [2]	Inhibition of complement activation in the hemolytic assay [3]	Appearance of Intralipid mixture on standing [4]	Aqueous solubility [5]	Complement inhibiting activity compared between excipients ([3]; ascorbate, citrate, histidine, methionine formulations)
IALILEP(Sar)CCQERAA [PA-I8Sar]	amphipathic	not observed	able to maintain dose-dependent inhibition of complement activation	–	–	–
IALILEPICCQERAA [PA]	–	–	–	became paste-like	–	–
IALILEPICCQERAA-dPEG24 (cysteine pairing not given here) [PA-dPEG24, PIC1 peptide with a C-terminal monodisperse 24-mer PEGylated moiety]	–	would start to gel if not kept on ice	able to maintain dose-dependent inhibition of complement activation	–	highly soluble	slightly increased complement inhibiting activity compared to peptide formulated in methionine
